Experimental data reported in publication PMC9176816, “A rapid and sensitive assay for quantifying the activity of both aerobic and anaerobic ribonucleotide reductases acting upon any or all substrates” (PLoS ONE, 2022).

Columns and labels:
[1] = biological target: T1, E. coli class Ia RNR (EcRNR; NrdA/NrdB) (Escherichia coli, UniProt P00452); test: LC-MS/MS of dCDP, dUDP, dADP, dGDP formation; assay type: biochemical; conditions: four substrates (CDP 70, UDP 50, GDP 200, ADP 110 μM), 3 mM ATP, 20 μM dATP, remaining activity, specificity effector, pH 7.6, 37 °C
T1 construct: both subunits N-terminally His-tagged (tags kept), codon-optimized pET30(a), E. coli T7 Express; NrdA 85774 Da, NrdB 44528 Da; alpha2 and beta2 dimers; with Ribonucleoside-diphosphate reductase 1 subunit beta
T1 sequence (P00452 1-761): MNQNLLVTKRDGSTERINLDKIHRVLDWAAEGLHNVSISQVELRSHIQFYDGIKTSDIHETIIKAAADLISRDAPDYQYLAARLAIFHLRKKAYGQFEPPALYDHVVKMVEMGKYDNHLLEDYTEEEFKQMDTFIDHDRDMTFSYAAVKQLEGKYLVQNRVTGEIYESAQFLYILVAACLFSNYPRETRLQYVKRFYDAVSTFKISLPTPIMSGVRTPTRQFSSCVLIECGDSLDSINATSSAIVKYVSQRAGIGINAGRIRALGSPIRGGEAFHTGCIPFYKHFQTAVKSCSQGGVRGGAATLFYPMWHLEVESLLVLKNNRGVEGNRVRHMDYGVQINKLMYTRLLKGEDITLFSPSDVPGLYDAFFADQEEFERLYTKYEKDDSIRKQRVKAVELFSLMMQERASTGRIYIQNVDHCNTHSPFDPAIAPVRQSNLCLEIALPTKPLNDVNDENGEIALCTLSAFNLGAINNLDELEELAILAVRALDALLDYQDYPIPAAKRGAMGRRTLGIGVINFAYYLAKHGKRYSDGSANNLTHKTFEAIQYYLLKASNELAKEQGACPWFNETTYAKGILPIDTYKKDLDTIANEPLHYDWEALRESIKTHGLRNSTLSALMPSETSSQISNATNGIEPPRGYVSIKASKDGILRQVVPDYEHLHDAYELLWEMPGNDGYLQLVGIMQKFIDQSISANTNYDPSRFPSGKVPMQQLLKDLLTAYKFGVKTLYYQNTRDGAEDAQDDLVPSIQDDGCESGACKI
T1 sequence (P69924 2-376 partner): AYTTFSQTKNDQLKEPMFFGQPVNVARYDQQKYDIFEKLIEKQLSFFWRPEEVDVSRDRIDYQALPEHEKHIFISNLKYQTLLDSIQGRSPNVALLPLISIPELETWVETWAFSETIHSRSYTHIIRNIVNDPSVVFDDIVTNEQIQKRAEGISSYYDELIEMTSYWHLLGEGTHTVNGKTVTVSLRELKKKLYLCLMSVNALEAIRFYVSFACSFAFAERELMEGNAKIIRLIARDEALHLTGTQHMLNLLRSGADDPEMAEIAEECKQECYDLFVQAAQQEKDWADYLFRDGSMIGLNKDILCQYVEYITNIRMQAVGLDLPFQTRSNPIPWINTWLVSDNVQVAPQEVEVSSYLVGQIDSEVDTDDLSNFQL

[2] = biological target: T1, E. coli class Ia RNR (EcRNR; NrdA/NrdB); test: LC-MS/MS of dCDP formation; assay type: biochemical; conditions: relative to 3 mM ATP; 1 mM CDP, dATP printed as 0.175 μM and 175 μM, NrdA 0.1 μM, NrdB 0.5 μM, Trx/TrxR/NADPH, Mg, pH 7.6, 37 °C; allosteric inhibitor

Compound: Cc1cn([C@H]2C[C@H](O)[C@@H](COP(=O)(O)OP(=O)(O)OP(=O)(O)O)O2)c(=O)[nH]c1=O [TTP]
- % of initial activity at 1 mM ([1]; 100 μM dGTP present): 27%

Compound: Nc1ncnc2c1ncn2[C@H]1C[C@H](O)[C@@H](COP(=O)(O)OP(=O)(O)OP(=O)(O)O)O1 [dATP]
- % inactivation [2]: 99%

Compound: Nc1nc2c(ncn2[C@H]2C[C@H](O)[C@@H](COP(=O)(O)OP(=O)(O)OP(=O)(O)O)O2)c(=O)[nH]1 [dGTP]
- % of initial activity at 1 mM ([1]; 250 μM TTP present): 50%
